Source: US3963707A, “Novel N-nitroso compounds, compositions containing such compounds, processes for their preparation and methods of treatment therewith, and novel intermediates” (Aktiebolaget Leo, priority 1973, dated 1976)

Test system: Hepatoma AH 130
Assay: in vivo
Design: species or system SPF Wistar rats
Conditions: additional compounds, result in words
Description: The high activity against tumours is further illustrated in these experiments by comparisons with known antitumour agents used in the therapy. The therapeutic indexes (T.I.), i.e. the ratios LD50/ED50, are in all comparisons much more favourable with the compounds of the present invention.
LD50 is the dose that caused a 50 percent lethality of the animals, ED50 is the dose that caused a 50 percent reduction of tumour size.
The experimental design and the interpretation of the results have been in accordance with the standards set by the CCNSC (Cancer Chemotherapy Reports, January 1959 and December 1962), and by the DR&D (Cancer Chemotherapy Reports, September 1972, Vol. 3, No. 2).
The way of administration is by the intraperitoneal route (i.p.) in each case.
Experimental animals: SPF Wistar rats.
Tumour implant: 5 × 10^6 tumour cells i.p.
Therapy: One injection i.p. on the day following implantation.
Termination: The animals are killed on the 8th day.
Evaluation: Weights of tumours of test animals compared with those of control animals.

| SMILES | anti-tumor activity |
| --- | --- |
| CC(=O)OCC(=O)[C@H]1CC[C@H]2[C@@H]3CCC4=CC(=O)CC[C@]4(C)[C@H]3[C@@H](OC(=O)N(CCCl)N=O)C[C@]12C [corticosterone-21-acetate-11β-N-(2-chloroethyl)-N-nitroso carbamate] | exhibit anti-tumor activity |
| CN(C(=O)O[C@H]1CC[C@@]2(C)C(=CC[C@H]3[C@@H]4CC[C@H](OP(=O)(O)O)[C@@]4(C)CC[C@@H]32)C1)C(=O)N(CCCl)N=O [androstenediol-3β-/N^2-methyl-N^4-(2-chloroethyl)-N^4 nitroso allophanate/-17β-dihydrogen phosphate] | exhibit anti-tumor activity |
| C#C[C@]1(OC(C)=O)CC[C@H]2[C@@H]3CCC4=C[C@@H](OC(=O)N(CCF)N=O)CC[C@@H]4[C@H]3CC[C@@]21C [ethynodiol-17β-acetate-3β-N-(2-fluoroethyl)-N-nitroso carbamate] | exhibit anti-tumor activity |
| COc1ccc2c(c1)CC[C@@H]1[C@@H]2CC[C@]2(C)[C@@H](OC(=O)N(C)C(=O)N(CCCl)N=O)CC[C@@H]12 [estradiol-3-methylether-17β-/N^2-methyl-N^4-(2-chloroethyl)-N^4-nitroso allophanate] | exhibit anti-tumor activity |
| CC(=O)[C@@]1(OC(=O)N(CCCl)N=O)CC[C@H]2[C@@H]3C=C(Cl)C4=CC(=O)CC[C@]4(C)[C@H]3CC[C@@]21C [6-chloro-6-dehydro-17α-hydroxyprogesterone,17α-N-(2-chloroethyl)-N-nitroso carbamate] | exhibit anti-tumor activity |
| C[C@]12CC[C@@H]3c4ccc(OC(=O)N(CCCl)N=O)cc4CC[C@H]3[C@@H]1CC[C@@H]2OP(=O)(O)Oc1ccccc1 [estradiol-17β-phenyl hydrogen phosphate-3-N-(2-chloroethyl)-N-nitroso carbamate] | exhibit anti-tumor activity |
| C#C[C@]1(OC(=O)N(CCCl)N=O)CC[C@H]2[C@@H]3CCC4=C[C@@H](OP(=O)(O)Oc5ccccc5)CC[C@@H]4[C@H]3CC[C@@]21C [ethynodiol-17β-N-(2-chloroethyl)-N-nitroso carbamate-3β-phenylhydrogen phosphate] | exhibit anti-tumor activity |
| CC(=O)[C@@]1(OC(=O)N(CCCl)N=O)CC[C@H]2[C@@H]3C[C@H](C)C4=CC(=O)CC[C@]4(C)[C@H]3CC[C@@]21C [6α-methyl-17α-hydroxy-progesterone,17α-N-(2-chloroethyl)-N-nitroso carbamate] | exhibit anti-tumor activity |
| CC(=O)[C@H]1CC[C@H]2[C@@H]3CC=C4C[C@@H](OC(=O)N(C(=O)N(CCCl)N=O)C5CCC(C)CC5)CC[C@]4(C)[C@H]3CC[C@]12C (stereo partly drawn) [pregnenolone-3β-/N^2-(4-methylcyclohexyl)-N^4-(2-chloroethyl)-N^4-nitroso allophanate/] | exhibit anti-tumor activity |
| C=CC[C@]1(OC(=O)N(CCCl)N=O)CC[C@H]2[C@@H]3CCC4=CCCC[C@@H]4[C@H]3CC[C@@]21C [17α-allyl-estr-4-en-17β-ol,17β-N-(2-chloroethyl)-N-nitroso carbamate] | exhibit anti-tumor activity |
| CC(C)CCC[C@@H](C)[C@H]1CC[C@H]2[C@@H]3CC=C4C[C@@H](OC(=O)N(CCF)N=O)CC[C@]4(C)[C@H]3CC[C@]12C [cholesterol-3β-N-(2-fluoroethyl)-N-nitroso carbamate] | exhibit anti-tumor activity |
| CC(C)[C@@H](C)/C=C/[C@@H](C)[C@H]1CC[C@H]2C3=CC=C4C[C@@H](OC(=O)N(CCCl)N=O)CC[C@]4(C)[C@H]3CC[C@]12C [ergosterol-3β-N-(2-chloroethyl)-N-nitroso carbamate] | exhibit anti-tumor activity |
| CC(=O)[C@H]1CC[C@H]2[C@@H]3CC=C4C[C@@H](OC(=O)N(CCF)N=O)CC[C@]4(C)[C@H]3CC[C@]12C [pregnenolone-3β-N-(2-fluoroethyl)-N-nitroso carbamate] | exhibit anti-tumor activity |
| C#C[C@]1(OC(=O)N(CCCl)N=O)CC[C@H]2[C@@H]3CCC4=C[C@@H](OS(=O)(=O)O)CC[C@@H]4[C@H]3CC[C@@]21C [ethynodiol-17β-N-(2-chloroethyl)-N-nitroso carbamate-3β-sodium sulphate] | exhibit anti-tumor activity |
| Cc1ccc(N(C(=O)O[C@H]2CC[C@@]3(C)C(=CC[C@@H]4[C@@H]3CC[C@]3(C)C(=O)CC[C@@H]43)C2)C(=O)N(CCCl)N=O)cc1C [dehydroepiandrosterone-3β-/N^2-(3,4-dimethylphenyl)-N^4-(2-chloroethyl)-N^4-nitroso allophanate/] | exhibit anti-tumor activity |
| C#C[C@]1(OC(=O)N(CCCl)N=O)CC[C@H]2[C@@H]3CCC4=C[C@@H](O)CC[C@@H]4[C@H]3CC[C@@]21C [ethynodiol-17β-N-(2-chloroethyl)-N-nitroso carbamate] | exhibit anti-tumor activity |

| SMILES | anti-tumor activity |
| --- | --- |
| CC1CCC(N(C(=O)Oc2ccc3c(c2)CC[C@@H]2[C@@H]3CC[C@]3(C)C(=O)CC[C@@H]23)C(=O)N(CCCl)N=O)CC1 (some centres unmarked) [estrone-3-/N^2-(4-methylcyclohexyl)-N^4-(2-chloroethyl)-N^4-nitroso allophanate/] | exhibit anti-tumor activity |
| CC(=O)[C@H]1CC[C@H]2[C@@H]3CC=C4C[C@@H](OC(=O)N(C(=O)N(CCCl)N=O)C5CCCCC5)CC[C@]4(C)[C@H]3CC[C@]12C [pregnenolone-3β-/N^2-cyclohexyl-N^4-(2-chloroethyl)-N^4-nitroso allophanate/] | exhibit anti-tumor activity |
| C#C[C@]1(OC(C)=O)CC[C@H]2[C@@H]3CCC4=C[C@@H](OC(=O)N(C)C(=O)N(CCCl)N=O)CC[C@@H]4[C@H]3CC[C@@]21C [ethynodiol-17β-acetate-3β-/N^2-methyl-N^4-(2-chloroethyl)-N^4-nitroso allophanate/] | exhibit anti-tumor activity |
| CC(C)CCC[C@@H](C)[C@H]1CC[C@H]2[C@@H]3CC=C4C[C@@H](OC(=O)N(C(=O)N(CCCl)N=O)c5ccccc5)CC[C@]4(C)[C@H]3CC[C@]12C [cholesterol-3β-/N^2-phenyl-N^4-(2-chloroethyl)-N^4-nitroso allophanate/] | exhibit anti-tumor activity |
| CC(=O)O[C@H]1CC[C@H]2[C@@H]3CCc4cc(OC(=O)N(CCF)N=O)ccc4[C@H]3CC[C@]12C [estradiol-17β-acetate-3-N-(2-fluoroethyl)-N-nitroso carbamate] | exhibit anti-tumor activity |
| COc1ccc2c(c1)CC[C@@H]1[C@@H]2CC[C@]2(C)[C@@H](OC(=O)NC(=O)N(CCCl)N=O)CC[C@@H]12 [estradiol-3-methylether-17β-/N^4-(2-chloroethyl)-N^4-nitroso allophanate/] | exhibit anti-tumor activity |
| C[C@]12CCC(=O)C=C1CC[C@@H]1[C@@H]2CC[C@@]2(C)[C@H]1CC[C@]2(C)OC(=O)N(CCCl)N=O [17α-methyltestosterone-17β-N-(2-chloroethyl)-N-nitroso carbamate] | exhibit anti-tumor activity |
| C[C@]12CC[C@@H](OC(=O)N(CCF)N=O)C[C@H]1CC[C@@H]1[C@@H]2CC[C@]2(C)C(=O)CC[C@@H]12 [etiocholanolone-3α-N-(2-fluoroethyl)-N-nitroso carbamate] | exhibit anti-tumor activity |
| CC1CC2(C)C(CCC3C2CCC2(C)C(OC(=O)N(CCCl)N=O)CCC32)CC1=O (stereo not drawn) [2α-methyl-dihydrotestosterone-17β-N-(2-chloroethyl)-N-nitroso carbamate] | exhibit anti-tumor activity |
| Cc1ccc(N(C(=O)Oc2ccc3c(c2)CC[C@@H]2[C@@H]3CC[C@]3(C)C(=O)CC[C@@H]23)C(=O)N(CCCl)N=O)cc1 [estrone-3-/N^2-(4-methylphenyl)-N^4-(2-chloroethyl)-N^4-nitroso allophanate/] | exhibit anti-tumor activity |
| C[C@]12C=CC(=O)C=C1CC[C@@H]1[C@@H]2[C@@H](OC(=O)N(CCCl)N=O)C[C@@]2(C)[C@H]1CC[C@]2(O)C(=O)CO [prednisolone-11β-N-(2-chloroethyl)-N-nitroso carbamate] | exhibit anti-tumor activity |
| C[C@]12CC[C@H]3[C@@H](CC=C4C[C@@H](OC(=O)N(CCCl)N=O)CC[C@@]43C)[C@@H]1CC[C@@H]2OP(=O)(O)Oc1ccccc1 [androstenediol-3β-/N-(2-chloroethyl)-N-nitroso carbamate/-17β-phenyl hydrogen phosphate] | exhibit anti-tumor activity |
| CC(=O)O[C@H]1C(=O)C[C@H]2[C@@H]3CCc4cc(OC(=O)N(CCCl)N=O)ccc4[C@H]3CC[C@]12C [estra-1,3,5(10)-triene-3,17β-diol-16-one,17β-acetate-3-N-(2-chloroethyl)-N-nitroso carbamate] | exhibit anti-tumor activity |
| C[C@]12C=CC(=O)C=C1CC[C@@H]1[C@@H]2[C@@H](O)C[C@@]2(C)[C@H]1CC[C@]2(O)C(=O)COC(=O)N(C(=O)N(CCCl)N=O)C1CCCCC1 [prednisolone-21-/N^2-cyclohexyl-N^4-(2-chloroethyl)-N-nitroso allophanate/] | exhibit anti-tumor activity |
| C[C@]12CC[C@H]3[C@@H](CC=C4C[C@@H](OC(=O)N(CCCl)N=O)CC[C@@]43C)[C@@H]1CC[C@@H]2OP(=O)(O)O [androstenediol-3β-/N-(2-chloroethyl)-N-nitroso carbamate/-17β-dihydrogen phosphate] | exhibit anti-tumor activity |
| CC(=O)O[C@H]1CC[C@H]2[C@@H]3CCc4cc(OC(=O)N(C)C(=O)N(CCCl)N=O)ccc4[C@H]3CC[C@]12C [estradiol-17β-acetate-3-/N^2-methyl-N^ 4-(2-chloroethyl)-N^4-nitroso allophanate/] | exhibit anti-tumor activity |
